Source: the RepoRT retention time repository (doi:10.1021/acs.analchem.2c02893)

Experiment: RP, Thermo Scientific Acclaim RSLC 120 C18, 100 × 2.1 mm, 2.2 µm, 30 °C, 0.2 mL/min, estimated dead time 1.1 min; A: 90% water + 10% methanol + 0.01% formic acid + 5 mM ammonium formate, pH 3.61; B: methanol + 0.01% formic acid + 5 mM ammonium formate, pH 3.61; gradient (min/%B) 0/1 1/1 2/39 13/99.9 15/99.9 15.1/1 20.1/1
Details: stereoisomer not certain

Structure (SMILES)	LC retention time [min]
c1ccc(CN2CCNCC2)cc1 [Benzylpiperazine]	4.23
NC(CC(=O)N1CCn2c(nnc2C(F)(F)F)C1)Cc1cc(F)c(F)cc1F (configuration not stated) [Sitagliptin]	5.08
CCOP(=S)(OCC)SCCS(=O)(=O)CC [Disulfoton-sulfone]	8.02
CC(CN1c2ccccc2Sc2ccc(S(=O)(=O)N(C)C)cc21)N(C)C (configuration not stated) [Dimetotiazine]	7.01
CCCCCCCCc1ccc(OCCOCCO)cc1 [Octylphenol diethoxylates (OP2EO)_NH4 adduct]	14.1
COc1cccc2c(C(=O)NC3C4(C)CCC(C4)C3(C)C)cn(CCN3CCOCC3)c12 (configuration not stated) [MN-25]	11.7
CCSC(=O)N1CCCCCC1 [Molinate]	9.89
CC(=O)NCC1CN(c2ccc(N3CCOCC3)c(F)c2)C(=O)O1 (configuration not stated) [Linezolid]	5.56
CC[N+]1(C)C2CC(OC(=O)C(CO)c3ccccc3)CC1C1OC12 (configuration not stated) [Oxitropium]	3.87
Cc1c(Cl)cccc1Nc1ccccc1C(=O)O [Tolfenamic acid]	11.9
CCCN(CCOc1c(Cl)cc(Cl)cc1Cl)C(=O)NC=O	11.2
OC(CCN1CCCC1)(c1ccccc1)C1CCCCC1 (configuration not stated) [Procyclidine]	7.8
COC12CCC3(CC1C(C)(O)C(C)(C)C)C1Cc4ccc(O)c5c4C3(CCN1CC1CC1)C2O5 (configuration not stated) [Buprenorphine (BN)]	7.96
COc1cccc(C(=O)CCNC(C)C(O)c2ccccc2)c1 (configuration not stated) [Oxyfedrine]	6.14
CNC1CCC(c2ccc(Cl)c(Cl)c2)c2ccccc21 (configuration not stated) [Sertraline]	8.94
CCCCCCCCn1sccc1=O [2-Octyl-4-isothiazolin-3-one]	10.3
CC(C)(C)Nc1nc(N)nc(Cl)n1 [Terbuthylazine-desethyl]	7.48
CCOP(=S)(OCC)Oc1ccc(S(C)(=O)=O)cc1 [Fensulfothion-sulfon]	8.48
CC[N+]1([O-])CCCC1CNC(=O)c1cc(S(=O)(=O)CC)c(N)cc1OC (configuration not stated) [Amisulpride-N-Oxide]	4.33
CCCCOC(=O)c1ccccc1C(=O)OCc1ccccc1 [Phthalate-Benzyl butyl]	12.4
CCOP(=S)(OCC)Oc1cnc2ccccc2n1 [Quinalphos]	10.8
CC1(C)OC2COC3(COS(N)(=O)=O)OC(C)(C)OC3C2O1 (configuration not stated) [Topiramate]	6.08

Structure (SMILES)	LC retention time [min]
CC(C)C(=O)Nc1ccc([N+](=O)[O-])c(C(F)(F)F)c1 [Flutamide]	11.2
CNC(=O)Oc1cccc2c1OC(C)(C)O2 [Bendiocarb]	7.02
O=C(O)C1C2CCC(O2)C1C(=O)O (configuration not stated) [Endothal]	3.2
CCCCn1cc(C(=O)c2cccc3ccccc23)c2ccccc21 [JWH-073]	11.9
CCCCCn1cc(C(=O)c2ccc(F)c3ccccc23)c2ccccc21 [JWH-412]	12.8
CNC1=C(c2cccc(C(F)(F)F)c2)C(=O)C(c2ccccc2)O1 (configuration not stated) [Flurtamone]	9.14
COc1c(C)c2c(c(O)c1CC=C(C)CCC(=O)O)C(=O)OC2 [Mycophenolic acid]	8.79
COc1ccc(CC2c3cc(OC)c(OC)cc3CCN2C)cc1OC (configuration not stated) [Laudanosine]	4.71
CCN1CCCC1CNC(=O)c1c(OC)ccc(Br)c1OC (configuration not stated) [Remoxipride]	5.06
Cc1ccc(C(=O)c2cn(CCCCCO)c3ccccc23)c2ccccc12 [JWH-122-M-N-5-OH-Pentyl]	10.6
CC(C)CC1Nc2cc(Cl)c(S(N)(=O)=O)cc2S(=O)(=O)N1 (configuration not stated) [Butizide]	6.14
CCC(C)N(C(=O)SCc1ccccc1)C(C)CC (configuration not stated) [Tiocarbazil]	12.8
Cc1ccc(NC(=O)N(C)C)cc1Cl [Chlorotoluron]	7.98
CN1CCCN=C1COC(=O)C(O)(c1ccccc1)C1CCCCC1 (configuration not stated) [Oxyphencyclimine]	7.98
CCSC(=O)N(CC)C1CCCCC1 [Cycloate]	11.7
CC(C)C(NC(=O)c1cn(CCCCCF)c2ccccc12)C(N)=O (configuration not stated) [ABICA-5F]	8.93
Cc1onc(-c2ccccc2)c1-c1ccc(S(N)(=O)=O)cc1 [Valdecoxib]	7.37
COC(=O)C(C)Oc1cc(Cl)c(Cl)cc1Cl (configuration not stated) [Fenoprop-methylester  (Silvex-methyester)]	11.5
CC1CC2C3CCC4=CC(=O)C=CC4(C)C3(Cl)C(O)CC2(C)C1(OC(=O)c1ccco1)C(=O)CCl (configuration not stated) [Mometasone fuorate]	10.6
O=c1[nH]c2ccccc2n1CCN1CCN(c2cccc(C(F)(F)F)c2)CC1 [Flibanserin]	9.99
CCCOc1ccc(C(=O)CCN2CCCCC2)cc1 [Propipocaine]	6.24
Cc1nn(C)c(Oc2ccccc2)c1C=NOCc1ccc(C(=O)OC(C)(C)C)cc1 [Fenpyroximate]	13.2

Structure (SMILES)	LC retention time [min]
O=S(=O)(O)c1nc2ccccc2s1 [2-Benzothiazolesulfonic acid]	4.48
Nc1c(Cl)c(Cl)nc(C(=O)O)c1Cl [Picloram]	3.56
CC(C1=C(CCN(C)C)Cc2ccccc21)c1ccccn1 (configuration not stated) [Dimetindene]	6.86
CCCc1nn(C)c2c(=O)[nH]c(-c3cc(C(=O)CN4CCN(CC)C(=O)C4)ccc3OCC)nc12 [Oxohongdenafil]	9.09
C=C(c1ccccc1OCc1cccc(Cl)c1)n1ccnc1 [Croconazole]	10.7
CN(C)CCN(Cc1cccs1)c1ccccc1 [Methaphenilene]	6.32
O=C(NC(=O)c1ccccc1Cl)Nc1ccc(OC(F)(F)F)cc1 [Triflumuron]	11.2
CC(C)N(C(=O)SCC(Cl)=CCl)C(C)C [Diallate]	11.8
CCCCCCCCCCCC(CC1OC(=O)C1CCCCCC)OC(=O)C(CC(C)C)NC=O (configuration not stated) [Orlistat (Na)]	14.6
CC(C)C(Br)C(=O)NC(N)=O (configuration not stated) [Bromural (Bromisoval)]	6.17
CCCCCn1cc(C(=O)NCc2ccccc2)c2ccccc21 [SDB-006]	11.2
O=C1CN=C(c2ccccc2)c2cc(Cl)ccc2N1CC1CC1 [Prazepam]	10.6
C=CCN1CCC23c4c5ccc(O)c4OC2C(O)C=CC3C1C5 (configuration not stated) [Nalorphine]	3.39
NC(N)=NC(=O)c1nc(Cl)c(N)nc1N [Amiloride]	3.68
CCCCSP(=O)(SCCCC)SCCCC [Tribufos (Merphos oxide. DEF)]	13.4
CC(C)c1ccc(NC(N)=O)cc1 [Isoproturon-didemethyl (1-(4-Isoprophenyl)urea)]	7.76
Cc1ccc(C(=O)c2ccc(CC(=O)O)n2C)cc1 [Tolmetin]	7.89
CCNC1(c2cccc(OC)c2)CCCCC1=O (configuration not stated) [Methoxetamine]	4.93
C#CC1(OC(C)=O)CCC2C3CCC4=CC(=NO)CCC4C3CCC21CC (configuration not stated) [Norgestimate]	11.9
CCC(=O)C1C(=O)CC(C(=O)O)CC1=O (configuration not stated) [Prohexadione]	5.63
CCCCCCC(C)(C)c1cc(O)c2c(c1)OC(C)(C)C1CC=C(CO)CC21 (configuration not stated) [HU-210]	13.5
Nc1c(Cl)c(F)nc(OCC(=O)O)c1Cl [Fluroxypyr]	5.43

Structure (SMILES)	LC retention time [min]
Cc1cc(C)n(-c2nc3ccccc3[nH]2)n1 [Rabenzazole]	8.27
CCN(CC)C(C)C(=O)c1ccccc1 (configuration not stated) [Amfepramone]	4.11
CN(C)CCOC(c1ccc(Cl)cc1)c1ccccn1 (configuration not stated) [Carbinoxamine]	6.08
CN1CCCCC1Cn1cc(C(=O)c2ccccc2I)c2ccccc21 (configuration not stated) [AM-2233]	7.11
CON=C(C(=O)OC)c1ccccc1CON=C(C)c1cccc(C(F)(F)F)c1 [Trifloxystrobin]	11.6
c1ccc2sc(NC3CCCCC3)nc2c1 [N-Cyclohexyl-2-benzothiazol-amine]	10.9
CCC1=C(C)CN(C(=O)NCCc2ccc(S(=O)(=O)NC(=O)NC3CCC(C)CC3)cc2)C1=O (configuration not stated) [Glimepiride]	10.7
Cc1nc2n(c(=O)c1CCN1CCC(c3noc4cc(F)ccc34)CC1)CCCC2O (configuration not stated) [Risperidone-9-OH (Paliperidone)]	5.33
CNC(=O)ON=C(C)C(C)S(C)(=O)=O (configuration not stated) [Butoxycarboxim]	3.66
CN1C2CCC1CC(OC(=O)C(CO)c1ccccc1)C2 (configuration not stated) [Atropine]	4.36
CCOP(=S)(OCC)Oc1ccc(=O)n(-c2ccccc2)n1 [Pyridaphenthion]	9.79
CCCC(C(=O)c1ccc(C)cc1)N1CCCC1 (configuration not stated) [Pyrovalerone]	6.03
CNC(C)Cc1ccccc1OC (configuration not stated) [Methoxyphenamine]	4.69
CC12CCC(=O)C=C1CCC1C2CCC2(C)C(OC(=O)c3ccccc3)CCC12 (configuration not stated) [Testosterone benzoate]	13.8
CN1C2CCC1CC(OC(c1ccccc1)c1ccccc1)C2 (configuration not stated) [Benzatropine]	7.97
c1ccc(C2(N3CCCCC3)CCCCC2)cc1 [Phencyclidine]	5.74
CCOC(=O)c1cn2nc(OP(=S)(OCC)OCC)cc2nc1C [Pyrazophos]	11.4
NS(=O)(=O)c1cc(C(=O)O)cc(N2CCCC2)c1Oc1ccccc1 [Piretanide]	7.17
CC1CCCCC1NC(=O)Nc1ccccc1 (configuration not stated) [Siduron]	9.37
On1nnc2ccccc21 [Benzotriazole-1-Hydroxy]	3.88
O=C(NC12CC3CC(CC(C3)C1)C2)c1cn(CCCCCF)c2ccccc12 [STS-135]	12.2
